Earlier results, collected in patent US20050148561A1, “Novel triterpene derivatives, preparation thereof and use thereof” (Panacos Pharmaceuticals, Inc., priority 2003, published 2005).
Read-outs that look alike come from different tables or passages of the source.

Test system: HIV-1

Compound	T.I. (H9 lymphocyte cells)	EC50 (unit inferred, read-out: EC50, anti-HIV activity) [µM]	EC50 (H9 lymphocyte cells, read-out: EC50, inhibitory activity against HIV-1 replication) [µM]
CC(C)[C@@H]1CC[C@]2(C(=O)O)CC[C@]3(C)C(CCC4[C@@]5(C)CC[C@H](O)C(C)(C)C5CC[C@]43C)C12 (stereo partly shown) [dihydrobetulinic acid]	14	0.9	
CC(=O)[C@@H]1CC[C@]2(C(=O)O)CC[C@]3(C)[C@H](CC[C@@H]4[C@@]5(C)CC[C@H](O)C(C)(C)[C@@H]5CC[C@]43C)[C@@H]12 [platanic acid]	14		6.5
